Values after ≈ are worked out from the molar mass of the structure shown.
Legend:
[1] = Drug metabolism in DMSO assessed as oxidation by measuring rac-3-Hydroxy-2-oxo-1-phenylpyrrolidine-3-carboxylic Acid (2-Thiophen-2-ylethyl)amide formation incubated at high temperature under stirring condition for 2 days
[2] = Drug metabolism in DMSO assessed as oxidation by measuring rac-3-Hydroxy-2-oxo-1-phenylpyrrolidine-3-carboxylic Acid (2-Thiophen-2-ylethyl)amide formation measured after 2 years
[3] = Volume of distribution at steady state in mouse at 0.2 mg/kg, iv; assay type: ADME, organism-based; settings: in vivo, read-out: Vdss
[4] = Oral bioavailability in mouse at 0.5 mg/kg; assay type: ADME, organism-based; settings: in vivo
[5] = Stability in human liver microsomes assessed per mg protein; assay type: ADME, Microsome
[6] = Clearance in mouse at 0.2 mg/kg, iv; assay type: ADME, organism-based; settings: in vivo
[7] = Passive permeability across apical to basal side in human Caco2 cells; assay type: ADME, cell-based; settings: Caco-2, read-out: permeability
[8] = Half life in mouse at 0.2 mg/kg, iv; assay type: ADME, organism-based; settings: in vivo
[9] = Solubility of the compound in FaSSIF; assay type: physicochemical
[10] = Toxicity in CD-1 nude mouse xenografted with human U87MG cells at 5 to 20 mg/kg, po administered once daily for 12 days measured during compound dosing; assay type: organism-based; settings: in vivo, 288 h
[11] = Lipophilicity, log D of the compound at pH 7.4; assay type: physicochemical; settings: buffer
[12] = Solubility of the compound in FeSSIF; assay type: physicochemical
[13] = Dissociation constant, pKa of compound; assay type: physicochemical
[14] = Toxicity in CD-1 nude mouse xenografted with human U87MG cells assessed as body weight loss at 5 to 20 mg/kg, po administered once daily for 12 days measured during compound dosing; assay type: organism-based; settings: in vivo, 288 h
[15] = Oral bioavailability in mouse at 50 mg/kg; assay type: ADME, organism-based; settings: in vivo
U-87 MG = experiment: Antitumor activity against human U87MG cells xenografted in po dosed CD-1 nude mouse assessed as tumor growth inhibition administered once daily for 12 days; assay type: functional, organism-based; settings: U-87MG ATCC
[16] = Stability in mouse liver microsomes assessed per mg protein; assay type: ADME, Microsome

O=C(NCCc1cccs1)C1CCN(c2ccccc2)C1=O (configuration not stated)
Drug metabolism [1]: Metabolite not detected | Drug metabolism [2]: Metabolite detected

O=C1CCc2cc(N3CC[C@](O)(C(=O)NCc4cc(F)cc(Cl)c4)C3=O)ccc2N1
Vd [3]: 0.78 L/kg | bioavailability [4]: 35% | Stability [5]: < 10 µL/min | clearance [6]: 3 mL/min/kg | Papp A→B [7]: 16 ×10⁻⁶ cm/s | half-life [8]: 3 h | solubility [9]: 158 µg/mL (≈ 366 µM) | Activity [10]: Non-Toxic | logD [11]: 2 | solubility [12]: 334 µg/mL (≈ 773 µM) | pKa [13]: 11 | Activity [14]: Non-Toxic | bioavailability [15]: 100% | TGI (U-87 MG): Dose-dependent effect | Stability [16]: < 10 µL/min

From ChEMBL document CHEMBL4396866, “Discovery and Structure-Based Optimization of Next-Generation Reversible Methionine Aminopeptidase-2 (MetAP-2) Inhibitors” (J Med Chem, 2019)
